Values quoted from earlier work in publication PMC8468039, “Development of New Meridianin/Leucettine-Derived Hybrid Small Molecules as Nanomolar Multi-Kinase Inhibitors with Antitumor Activity” (Biomedicines, 2021).
pIC50: −log10 of the molar value.

Columns and labels:
Settings in all cases: cited from earlier work
CLK-1 = system: CLK-1; design: method as in PMID 21615147, PMID 19879673, PMID 22998443
DYRK-2 = system: DYRK-2; design: method as in PMID 21615147, PMID 19879673, PMID 22998443
CLK-3 = system: CLK-3; design: method as in PMID 8383730, PMID 21615147, PMID 19879673, PMID 22998443
DYRK-1A = system: DYRK-1A; design: method as in PMID 21615147, PMID 19879673, PMID 22998443

CN1C(=O)/C(=C/c2ccc3c(c2)OCO3)N=C1N [leucettamine B, Leucettamine B]
pIC50 (CLK-1): 6.40
pIC50 (DYRK-2): 5.82
pIC50 (CLK-3): 5.19
pIC50 (DYRK-1A): 5.55
